Laboratory results reported in patent US12071434B2, “Heterocyclic compound” (Takeda Pharmaceutical Company Limited, priority 2018, dated 2024).

Target: T1, human orexin type 2 receptor (Homo sapiens, UniProt O43614)
T1 construct: expressed in transfected cells
T1 sequence (O43614 1-444): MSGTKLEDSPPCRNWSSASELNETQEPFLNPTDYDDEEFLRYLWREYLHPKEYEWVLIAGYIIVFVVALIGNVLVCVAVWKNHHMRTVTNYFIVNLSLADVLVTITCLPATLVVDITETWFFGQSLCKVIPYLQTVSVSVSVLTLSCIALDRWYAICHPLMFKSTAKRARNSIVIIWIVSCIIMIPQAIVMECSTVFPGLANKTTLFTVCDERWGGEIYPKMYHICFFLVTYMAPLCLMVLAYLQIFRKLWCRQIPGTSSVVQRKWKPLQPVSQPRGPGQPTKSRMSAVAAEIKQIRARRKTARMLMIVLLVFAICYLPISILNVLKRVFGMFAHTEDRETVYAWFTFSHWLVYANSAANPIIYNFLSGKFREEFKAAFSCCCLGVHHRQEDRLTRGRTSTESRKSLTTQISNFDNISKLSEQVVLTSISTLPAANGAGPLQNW
Test: Measurement of orexin type 2 receptor agonist activity (calcium fluorescence, Fluo-4 AM, FDSS) in CHO cells forcibly expressing human OX2 receptor
Assay type: cell-based
Conditions: test compound 3 μM, DMSO = 0%, orexin A (human) 10 nM = 100%
Summary of the method: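 CHO-dhfr cells stably expressing human OX2 receptor, loaded with Fluo-4 AM plus probenecid for 30 min at 37 °C, then 30 min at room temperature. Calcium fluorescence read for about 2 min 40 s after compound addition. Activity (%) scaled between DMSO (0%) and 10 nM human orexin A (100%).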

Compound: CCn1ccc2c(c1=O)[C@@H](Cc1cccc(-c3ccccc3)c1F)[C@@H](NS(C)(=O)=O)C[C@@H]2F (racemic) [Example 167, rac-N-{(5S,7S,8R)-2-ethyl-5-fluoro-8-[(2-fluoro[1,1′-biphenyl]-3-yl)methyl]-1-oxo-1,2,5,6,7,8-hexahydroisoquinolin-7-yl}methanesulfonamide]
- 0X2R agonist activity (3 μM, %): 93%

Compound: CC(C)n1ccc2c(c1=O)[C@@H](Cc1cccc(-c3ccccc3)c1)[C@@H](NS(C)(=O)=O)CC2 (racemic) [Example 52, rac-N-[(7S,8R)-8-[([1,1′-biphenyl]-3-yl)methyl]-1-oxo-2-(propan-2-yl)-1,2,5,6,7,8-hexahydroisoquinolin-7-yl]methane sulfonamide]
- 0X2R agonist activity (3 μM, %): 90%

Compound: CC(C)N1CNC2=C(C1=O)[C@@H](Cc1cccc(-c3ccccc3)c1)[C@@H](NS(C)(=O)=O)CC2(F)F (racemic) [Example 162, rac-N-[(5R,6S)-5-[([1,1′-biphenyl]-3-yl)methyl]-8,8-difluoro-4-oxo-3-(propan-2-yl)-1,2,3,4,5,6,7,8-octahydroquinazolin-6-yl]methanesulfonamide]
- 0X2R agonist activity (3 μM, %): 101%

Compound: CN(C)c1ccc2n(c1=O)[C@@H](Cc1cccc(-c3ccccc3)c1)[C@@H](NS(C)(=O)=O)CC2 (racemic) [Example 31, rac-N-[(3S,4S)-4-[([1,1′-biphenyl]-3-yl)methyl]-7-(dimethylamino)-6-oxo-1,3,4,6-tetrahydro-2H-quinolizin-3-yl]methanesulfonamide]
- 0X2R agonist activity (3 μM, %): 100%

Compound: CCS(=O)(=O)N[C@H]1CCc2ncn(C(C)C)c(=O)c2[C@H]1Cc1cccc(-c2cccc(F)c2)c1F [Example 170, N-[(5R,6S)-5-[(2,3′-difluoro[1,1′-biphenyl]-3-yl)methyl]-4-oxo-3-(propan-2-yl)-3,4,5,6,7,8-hexahydroquinazolin-6-yl]ethanesulfonamide]
- 0X2R agonist activity (3 μM, %): 87%

Compound: CN1CC[C@@H]2CC[C@H](NS(C)(=O)=O)[C@H](Cc3cccc(-c4ccccc4)c3)N2C1=O (racemic) [Example 62, rac-N-{(4aS,7S,8S)-8-[([1,1′-biphenyl]-3-yl)methyl]-2-methyl-1-oxooctahydro-1H-pyrido[1,2-c]pyrimidin-7-yl}methanesulfonamide]
- 0X2R agonist activity (3 μM, %): 92%

Compound: CCS(=O)(=O)NC1CCc2ccc(C)c(=O)n2C1Cc1cccc(-c2ccccc2)c1 (racemic) [Example 11, rac-N-{(3S,4S)-4-[([(1,1′-biphenyl]-3-yl)methyl]-7-methyl-6-oxo-1,3,4,6-tetrahydro-2H-quinolizin-3-yl}ethanesulfonamide]
- 0X2R agonist activity (3 μM, %): 106%

Compound: Cc1nn(C)c(=O)c2c1CC[C@H](NS(C)(=O)=O)[C@@H]2Cc1cccc(-c2ccccc2)c1 (racemic) [Example 96, rac-N-{(5R,6S)-5-[([1,1′-biphenyl]-3-yl)methyl]-1,3-dimethyl-4-oxo-3,4,5,6,7,8-hexahydrophthalazin-6-yl}methanesulfonamide]
- 0X2R agonist activity (3 μM, %): 71%

Compound: CC1OC[C@@H]2CC[C@H](NS(C)(=O)=O)[C@H](Cc3cccc(-c4cccc(F)c4)c3)N2C1=O (relative stereo) [Example 140, rel-N-{(6S,7S,9aS)-6-[(3′-fluoro[1,1′-biphenyl]-3-yl)methyl]-3-methyl-4-oxooctahydropyrido[2,1-c][1,4]oxazin-7-yl}methanesulfonamide]
- 0X2R agonist activity (3 μM, %): 94%

Compound: COC1(C(=O)N[C@H]2CCc3ncn(C(C)C)c(=O)c3[C@H]2Cc2cccc(-c3ccccc3)c2)CC1 (racemic) [Example 63, rac-N-[(5R,6S)-5-[([1,1′-biphenyl]-3-yl)methyl]-4-oxo-3-(propan-2-yl)-3,4,5,6,7,8-hexahydroquinazolin-6-yl]-1-methoxycyclopropane-1-carboxamide]
- 0X2R agonist activity (3 μM, %): 92%

Compound: Cc1cnc2n(c1=O)[C@@H](Cc1cccc(-c3ccccc3)c1)[C@@H](NS(C)(=O)=O)CC2 (racemic) [Example 94, rac-N-{(6S,7S)-6-[([1,1′-biphenyl]-3-yl)methyl]-3-methyl-4-oxo-6,7,8,9-tetrahydro-4H-pyrido[1,2-a]pyrimidin-7-yl}methanesulfonamide]
- 0X2R agonist activity (3 μM, %): 89%

Compound: CCn1ccc2c(c1=O)[C@@H](Cc1cccc(-c3cc(F)cc(C)c3F)c1)[C@@H](NS(C)(=O)=O)CC2 (racemic) [Example 127, rac-N-{(7S,8R)-8-[(2′,5′-difluoro-3′-methyl[1,1′-biphenyl]-3-yl)methyl]-2-ethyl-1-oxo-1,2,5,6,7,8-hexahydroisoquinolin-7-yl}methanesulfonamide]
- 0X2R agonist activity (3 μM, %): 105%

Compound: CC(C)n1cnc2c(c1=O)[C@@H](Cc1cccc(-c3ccccc3)c1)[C@@H](NS(=O)(=O)CF)CC2 (relative stereo) [Example 145, rel-N-[(5R,6S)-5-[([1,1′-biphenyl]-3-yl)methyl]-4-oxo-3-(propan-2-yl)-3,4,5,6,7,8-hexahydroquinazolin-6-yl]-1-fluoromethanesulfonamide]
- 0X2R agonist activity (3 μM, %): 92%

Compound: CC(C)n1cnc2c(c1=O)[C@@H](Cc1cccc(-c3cc(F)cc(F)c3)c1)[C@@H](NS(=O)(=O)C1CC1)CC2 [Example 175, N-[(5R,6S)-5-[(3′,5′-difluoro[1,1′-biphenyl]-3-yl)methyl]-4-oxo-3-(propan-2-yl)-3,4,5,6,7,8-hexahydroquinazolin-6-yl]cyclopropanesulfonamide]
- 0X2R agonist activity (3 μM, %): 85%

Compound: CC(C)n1ccc2c(c1=O)[C@@H](Cc1cccc(-c3cccc(F)c3)c1)[C@@H](NS(C)(=O)=O)CC2 (racemic) [Example 74, rac-N-[(7S,8R)-8-[(3′-fluoro[1,1′-biphenyl]-3-yl)methyl]-1-oxo-2-(propan-2-yl)-1,2,5,6,7,8-hexahydroisoquinolin-7-yl]methanesulfonamide]
- 0X2R agonist activity (3 μM, %): 91%

Compound: Cc1ccc2n(c1=O)[C@@H](Cc1cccc(-c3ccccc3)c1)[C@@H](NS(C)(=O)=O)CC2 (relative stereo) [Example 10, rel-N-{(3S,4S)-4-[([1,1′-biphenyl]-3-yl)methyl]-7-methyl-6-oxo-1,3,4,6-tetrahydro-2H-quinolizin-3-yl}methanesulfonamide]
- 0X2R agonist activity (3 μM, %): 101%

Compound: CCn1c(C)nc2c(c1=O)[C@@H](Cc1cccc(-c3cccc(C)c3)c1)[C@@H](NS(C)(=O)=O)CC2 (racemic) [Example 78, rac-N-{(5R,6S)-3-ethyl-2-methyl-5-[(3′-methyl[1,1′-biphenyl]-3-yl)methyl]-4-oxo-3,4,5,6,7,8-hexahydroquinazolin-6-yl}methanesulfonamide]
- 0X2R agonist activity (3 μM, %): 100%

Compound: CC(C)=Cc1cccc(C[C@@H]2c3c(ncn(C(C)C)c3=O)CC[C@@H]2NS(=O)(=O)C2(F)CC2)c1 (racemic) [Example 197, rac-1-fluoro-N-[(5R,6S)-5-{[3-(2-methylprop-1-en-1-yl)phenyl]methyl}-4-oxo-3-(propan-2-yl)-3,4,5,6,7,8-hexahydroquinazolin-6-yl]cyclopropane-1-sulfonamide]
- 0X2R agonist activity (3 μM, %): 92%

Compound: CC(C)n1cnc2c(c1=O)[C@@H](Cc1cccc(-c3ccccc3)c1)[C@@H](NS(=O)(=O)C1CC1)CC2 (racemic) [Example 134, rac-N-[(5R,6S)-5-[([1,1′-biphenyl]-3-yl)methyl]-4-oxo-3-(propan-2-yl)-3,4,5,6,7,8-hexahydroquinazolin-6-yl]cyclopropanesulfonamide]
- 0X2R agonist activity (3 μM, %): 111%
